In US20060069132A1, “Azolecarboxamide herbicides” (priority 2004, published 2006):

Key:
morningglory [1] = assay: Test A pre-/postemergence herbicide test; type: in vivo, Ipomoea spp.
Summary of the method: (§1)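 Visual injury scores on a 0–100 scale (100 = complete control) taken about ten days post-treatment in greenhouse against untreated controls; dash means no result. Treatments: preemergence soil spray and postemergence spray to runoff on one- to two-leaf plants 2 to 10 cm tall, surfactant-containing formulation.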

Surinam grass = assay: Test B pre-/postemergence herbicide test; type: in vivo, Urochloa decumbens; conditions: for Surinam Grass plant response rating: postemergence, visual rating, scale 0 (no effect) to 100 (complete control)
Summary of the method: (§2)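 Visual rating, 0 (no effect) to 100 (complete control), versus untreated controls after 13–15 d in greenhouse. Pre- and postemergence applications (postemergence plants 2–18 cm, 1–4 leaves); flooded paddy arm at 2-leaf stage. Compounds in non-phytotoxic solvent plus surfactant.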

redroot pigweed = assay: Test A pre-/postemergence herbicide test; type: in vivo, Amaranthus retroflexus
Summary of the method: as §1

cocklebur = assay: Test B pre-/postemergence herbicide test; type: in vivo, Xanthium strumarium; conditions: for Cocklebur plant response rating: postemergence, visual rating, scale 0 (no effect) to 100 (complete control)
Summary of the method: (§3)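 Flooded paddy rice and barnyardgrass were treated at the 2-leaf stage; upland plantings received compound either on sown seed or on 1- to 4-leaf seedlings. All were kept 13–15 days in a greenhouse and scored visually, 0–100, relative to untreated plants.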

wild oat = assay: Test B postemergence herbicide test; type: in vivo, Avena fatua; conditions: postemergence, visual rating, scale 0 (no effect) to 100 (complete control)
Summary of the method: (§4)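 After treating 2-leaf paddy plants or 2–18 cm postemergence plants (1 to 4 leaves) with formulated chemical, researchers kept them in a greenhouse for 13–15 days. Effects were judged visually versus controls: 0 indicates none, 100 total control.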

barnyardgrass [2] = assay: Test A pre-/postemergence herbicide test; type: in vivo, Echinochloa crus-galli
Summary of the method: as §1

barnyardgrass [3] = assay: Test B pre-/postemergence herbicide test; type: in vivo, Echinochloa crus-galli; conditions: for Barnyardgrass plant response rating: postemergence, visual rating, scale 0 (no effect) to 100 (complete control)
Summary of the method: as §3

corn = assay: Test B pre-/postemergence herbicide test; type: in vivo, Zea mays; conditions: for Corn plant response rating: postemergence, visual rating, scale 0 (no effect) to 100 (complete control)
Summary of the method: as §2

velvetleaf [4] = assay: Test B pre-/postemergence herbicide test; type: in vivo, Abutilon theophrasti; conditions: for Velvetleaf plant response rating: postemergence, visual rating, scale 0 (no effect) to 100 (complete control)
Summary of the method: as §2

ducksalad = assay: Test B flooded paddy test; type: in vivo, Heteranthera limosa; conditions: 1000 g ai/ha, visual rating, scale 0 to 100 (0 no effect, 100 complete control), 13 to 15 days
Summary of the method: as §4

giant foxtail [5] = assay: Test B pre-/postemergence herbicide test; type: in vivo, Setaria faberi; conditions: for Foxtail, Giant plant response rating: postemergence, visual rating, scale 0 (no effect) to 100 (complete control)
Summary of the method: as §2

pigweed = assay: Test B pre-/postemergence herbicide test; type: in vivo, Amaranthus retroflexus; conditions: for Pigweed plant response rating: postemergence, visual rating, scale 0 (no effect) to 100 (complete control)
Summary of the method: as §2

rice [6] = assay: Test B flooded paddy test; type: in vivo, Oryza sativa; conditions: 1000 g ai/ha, visual rating, scale 0 to 100 (0 no effect, 100 complete control), 13 to 15 days
Summary of the method: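 Read-out: visual comparison with controls, scored 0 to 100, where 100 means complete control and 0 no effect. Formulated chemicals were applied postemergence to plants 2–18 cm tall (1- to 4-leaf), or to flooded-paddy plants at the 2-leaf stage, then held 13 to 15 days under glass.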

large crabgrass [7] = assay: Test B pre-/postemergence herbicide test; type: in vivo, Digitaria sanguinalis; conditions: for Crabgrass, Large plant response rating: postemergence, visual rating, scale 0 (no effect) to 100 (complete control)
Summary of the method: as §2

large crabgrass [8] = assay: Test A pre-/postemergence herbicide test; type: in vivo, Digitaria sanguinalis
Summary of the method: as §1

barnyardgrass [9] = assay: Test B flooded paddy test; type: in vivo, Echinochloa crus-galli; conditions: 1000 g ai/ha, visual rating, scale 0 to 100 (0 no effect, 100 complete control), 13 to 15 days
Summary of the method: as §4

giant foxtail [10] = assay: Test A pre-/postemergence herbicide test; type: in vivo, Setaria faberi
Summary of the method: as §1

lambsquarters = assay: Test B pre-/postemergence herbicide test; type: in vivo, Chenopodium album; conditions: for Lambsquarters plant response rating: postemergence, visual rating, scale 0 (no effect) to 100 (complete control)
Summary of the method: as §2

blackgrass = assay: Test B postemergence herbicide test; type: in vivo, Alopecurus myosuroides; conditions: postemergence, visual rating, scale 0 (no effect) to 100 (complete control)
Summary of the method: as §4

[11] = tested on: small flower umbrella sedge; assay: Test B flooded paddy test; type: in vivo, Cyperus difformis; conditions: 1000 g ai/ha, visual rating, scale 0 to 100 (0 no effect, 100 complete control), 13 to 15 days
Summary of the method: as §4

velvetleaf [12] = assay: Test A pre-/postemergence herbicide test; type: in vivo, Abutilon theophrasti
Summary of the method: as §1

morningglory [13] = assay: Test B pre-/postemergence herbicide test; type: in vivo, Ipomoea coccinea; conditions: for Morningglory plant response rating: postemergence, visual rating, scale 0 (no effect) to 100 (complete control)
Summary of the method: as §3

wheat = assay: Test B postemergence herbicide test; type: in vivo, Triticum aestivum; design: key to Wheat plant response rating: 0 = no effect, 100 = complete control; conditions: postemergence, visual rating, scale 0 (no effect) to 100 (complete control)
Summary of the method: as §4

rice [14] = assay: Test B pre-/postemergence herbicide test; type: in vivo, Oryza sativa; conditions: preemergence
Summary of the method: as §2

[15] = Postemergence, 500 g ai/ha, 0 to 100 scale, 0 no effect, 100 complete control
[16] = Postemergence, 2000 g ai/ha, 0 to 100 scale, 0 no effect, 100 complete control
[17] = Preemergence, 2000 g ai/ha, visual rating, 0 to 100 scale (0 no effect, 100 complete control)
[18] = preemergence, 500 g ai/ha, visual injury, 0 to 100 scale (0 no effect, 100 complete control)
[19] = 125 g ai/ha, 0 = no effect, 100 = complete control, preemergence
[20] = 500 g ai/ha, visual rating 0-100, 0 no effect, 100 complete control, preemergence

CCc1nc(C(C)(C)C)sc1C(=O)Nc1cccc(C(=O)NCC(F)(F)F)c1 [Compound 206]
Morningglory plant response rating (morningglory [1]; [15]): 0 | Plant response rating, Morningglory (morningglory [1]; [16]): 0 | Morningglory plant response rating (morningglory [1]; [17]): 25 | Morningglory plant response rating (morningglory [1]; [18]): 5 | Surinam Grass plant response rating (0 to 100 scale) (Surinam grass; [19]): 0 | Plant response rating, Surinam Grass (Surinam grass; [20]): 20 | Surinam Grass plant response rating (Surinam grass; 125 g ai/ha): 10 | Surinam Grass plant response rating (Surinam grass; 500 g ai/ha): 20 | Pigweed plant response rating (redroot pigweed; [15]): 15 | Plant response rating, Pigweed (redroot pigweed; [16]): 20 | Pigweed plant response rating (redroot pigweed; [17]): 60 | Pigweed plant response rating (redroot pigweed; [18]): 25 | Cocklebur plant response rating (0 to 100 scale) (cocklebur; [19]): 0 | Plant response rating, Cocklebur (cocklebur; [20]): 0 | Cocklebur plant response rating (cocklebur; 125 g ai/ha): 20 | Cocklebur plant response rating (cocklebur; 500 g ai/ha): 40 | Oat, Wild plant response rating (wild oat; 125 g ai/ha): 20 | Oat, Wild plant response rating (wild oat; 500 g ai/ha): 20 | Barnyardgrass plant response rating (barnyardgrass [2]; [15]): 5 | Plant response rating, Barnyardgrass (barnyardgrass [2]; [16]): 10 | Barnyardgrass plant response rating (barnyardgrass [2]; [17]): 60 | Barnyardgrass plant response rating (barnyardgrass [2]; [18]): 10 | Barnyardgrass plant response rating (0 to 100 scale) (barnyardgrass [3]; [19]): 10 | Plant response rating, Barnyardgrass (barnyardgrass [3]; [20]): 70 | Barnyardgrass plant response rating (barnyardgrass [3]; 125 g ai/ha): 0 | Barnyardgrass plant response rating (barnyardgrass [3]; 500 g ai/ha): 10 | Corn plant response rating (0 to 100 scale) (corn; [19]): 0 | Plant response rating, Corn (corn; [20]): 40 | Corn plant response rating (corn; 125 g ai/ha): 20 | Corn plant response rating (corn; 500 g ai/ha): 20 | Velvetleaf plant response rating (0 to 100 scale) (velvetleaf [4]; [19]): 0 | Plant response rating, Velvetleaf (velvetleaf [4]; [20]): 10 | Velvetleaf plant response rating (velvetleaf [4]; 125 g ai/ha): 20 | Velvetleaf plant response rating (velvetleaf [4]; 500 g ai/ha): 20 | Ducksalad plant response rating (ducksalad): 40 | Foxtail, Giant plant response rating (0 to 100 scale) (giant foxtail [5]; [19]): 0 | Plant response rating, Foxtail, Giant (giant foxtail [5]; [20]): 20 | Foxtail, Giant plant response rating (giant foxtail [5]; 125 g ai/ha): 20 | Foxtail, Giant plant response rating (giant foxtail [5]; 500 g ai/ha): 20 | Pigweed plant response rating (0 to 100 scale) (pigweed; [19]): 0 | Plant response rating, Pigweed (pigweed; [20]): 80 | Pigweed plant response rating (pigweed; 125 g ai/ha): 30 | Pigweed plant response rating (pigweed; 500 g ai/ha): 40 | Rice plant response rating (rice [6]): 30 | Crabgrass, Large plant response rating (0 to 100 scale) (large crabgrass [7]; [19]): 10 | Plant response rating, Crabgrass, Large (large crabgrass [7]; [20]): 60 | Crabgrass, Large plant response rating (large crabgrass [7]; 125 g ai/ha): 10 | Crabgrass, Large plant response rating (large crabgrass [7]; 500 g ai/ha): 30 | Crabgrass, Large plant response rating (large crabgrass [8]; [15]): 0 | Plant response rating, Crabgrass, Large (large crabgrass [8]; [16]): 5 | Crabgrass, Large plant response rating (large crabgrass [8]; [17]): 20 | Crabgrass, Large plant response rating (large crabgrass [8]; [18]): 20 | Barnyardgrass plant response rating (barnyardgrass [9]): 10 | Foxtail, Giant plant response rating (giant foxtail [10]; [15]): 0 | Plant response rating, Foxtail, Giant (giant foxtail [10]; [16]): 0 | Foxtail, Giant plant response rating (giant foxtail [10]; [17]): 20 | Foxtail, Giant plant response rating (giant foxtail [10]; [18]): 0 | Lambsquarters plant response rating (0 to 100 scale) (lambsquarters; [19]): 0 | Plant response rating, Lambsquarters (lambsquarters; [20]): 30 | Lambsquarters plant response rating (lambsquarters; 125 g ai/ha): 30 | Lambsquarters plant response rating (lambsquarters; 500 g ai/ha): 80 | Blackgrass plant response rating (blackgrass; 125 g ai/ha): 0 | Blackgrass plant response rating (blackgrass; 500 g ai/ha): 20 | Sedge, Umbrella plant response rating [11]: 50 | Velvetleaf plant response rating (velvetleaf [12]; [15]): 5 | Plant response rating, Velvetleaf (velvetleaf [12]; [16]): 20 | Velvetleaf plant response rating (velvetleaf [12]; [17]): 10 | Velvetleaf plant response rating (velvetleaf [12]; [18]): 15 | Morningglory plant response rating (0 to 100 scale) (morningglory [13]; [19]): 0 | Plant response rating, Morningglory (morningglory [13]; [20]): 20 | Morningglory plant response rating (morningglory [13]; 125 g ai/ha): 20 | Morningglory plant response rating (morningglory [13]; 500 g ai/ha): 20 | Wheat plant response rating (wheat; 125 g ai/ha): 20 | Wheat plant response rating (wheat; 500 g ai/ha): 20 | Rice plant response rating (0 to 100 scale) (rice [14]; 125 g ai/ha, 0 = no effect, 100 = complete control): 0 | Plant response rating, Rice (rice [14]; 500 g ai/ha, visual rating 0-100, 0 no effect, 100 complete control): 30
